How the values were obtained:
STAM mice = assay: NASH-HCC (STAM) model: body weight, liver weight, macroscopic liver appearance; format: in vivo; conditions: for Liver Weight / Liver-to-body Weight Ratio: 5-9 wks
Protocol: NASH-HCC (STAM™) Model. C57BL/6 (15-day-pregnant female) mice are obtained from Charles River Laboratories Japan (Kanagawa, Japan). Male pups are selected for the study. NASH is induced in male mice by a single subcutaneous injection of 200 μg streptozotocin (STZ, Sigma-Aldrich, USA) solution 2 days after birth, followed by feeding a HFD (57 kcal % fat, cat#: HFD32, CLEA Japan, Japan) beginning at 4 weeks of age. At 5 weeks of age, mice are divided into a control group and one or more treated group (generally 8 mice per group). Animals are sacrificed at 9 weeks of age, and biochemical, histological, and gene expression analyses are performed.
All animals used in the study are housed and cared for in accordance with local regulations. Test animals are maintained in an SPF facility under controlled conditions of temperature (23±2° C.), humidity (45±10%), lighting (12-hour artificial light and dark cycles; light from 8:00 to 20:00) and air exchange. A high pressure (20±4 Pa) is maintained in the experimental room. Test animals are housed in polycarbonate cages KN-600 (Natsume Seisakusho, Japan) with a maximum of 4 mice per cage. Sterilized PULMASμ (Material Research Center, Japan) are used for bedding and replaced once a week. Sterilized solid HFD is provided ad libitum, being placed in the metal lid on top of the cage. Pure water is provided ad libitum from a water bottle equipped with a rubber stopper and a sipper tube. Water bottles are replaced once a week, cleaned and sterilized in autoclave and reused.
Generally, elevated NAFLD activity score (NAS)≧5, steatosis, and elevated ALT is evident by week 6, NASH is evident by week 7, perisinusoidal fibrosis is evident by week 9, nodules are evident by week 12, and HCC is evident by week 16. It is to be understood herein that perisinusoidal fibrosis in mice is the model for NASH in humans (Fujii et al., Med Mol Morphol 46: 141-152 (2013)).
During weeks 5-9 (starting at day 35±2), test compound is administered (generally orally) at various doses diluted to 10 mL/kg and according to various dosing protocols to treatment groups (8 mice each) while a second group (8 mice) is administered vehicle only. Animals are sacrificed at 9 weeks.
Illustrative dose response test groups. Group 1-Normal. Eight normal mice are fed with a normal diet ad libitum without any treatment until 9 weeks of age. Group 2-Vehicle. Eight NASH mice are orally administered vehicle (0.5% w/v methylcellulose+0.2% Tween®80) in a volume of 10 mL/kg twice daily from 5 to 9 week of age. Group 3-solithromycin 5 mg/kg. Eight NASH mice are orally administered vehicle supplemented with solithromycin at a dose of 5 mg/kg in the morning and the vehicle in the evening (5 mg/kg/day) from 5 to 9 weeks of age. Group 4-solithromycin 10 mg/kg. Eight NASH mice are orally administered vehicle supplemented with solithromycin at a dose of 10 mg/kg twice daily (20 mg/kg/day) from 5 to 9 weeks of age. Group 5-solithromycin 25 mg/kg. Eight NASH mice are orally administered vehicle supplemented with solithromycin at a dose of 25 mg/kg twice daily (50 mg/kg/day) from 5 to 9 weeks of age. Group 6-solithromycin 50 mg/kg. Eight NASH mice are orally administered vehicle supplemented with solithromycin at a dose of 50 mg/kg once daily (50 mg/kg/day) from 5 to 9 weeks of age.

[1] = tested on: lung mRNA expression levels; assay: Bleomycin-induced lung injury: quantitative RT-PCR of lung; format: in vivo; conditions: bleomycin mice lung, normalized to GAPDH, vehicle 1.00, heading says 50 mg/kg q.d.
Protocol: Bleomycin-Induced Lung Injury. Lung inflammation is induced in female mice by a single intratracheal administration of bleomycin. Twenty mice are divided into two groups. […] It is to be understood herein that 100 mg/kg in mice is generally considered to be equivalent to a 450-500 mg, such as 480 mg, dose in humans. Animals are sacrificed on Day 7.
Pathogen-free 7 weeks old female C57BL/6J mice are obtained from CLEA Japan (Tokyo, Japan) and allowed to acclimate at least 6 days. On day 0, twenty mice are induced to develop pulmonary fibrosis by a single intratracheal administration of bleomycin sulphate (BLM, Nippon Kayaku, Japan) in 0.9% saline in a volume of 50 μL per animal using a Microsprayer® (Penn-Century, USA). Individual body weight is measured daily during the experiment period. Survival, clinical signs and behavior of mice is monitored daily.
Solithromycin Reduces Inflammation In Mice Caused By Bleomycin-Induced Lung Injury. Pulmonary fibrosis is a problem in the management of patients who have received chemotherapy for malignancies particularly with regimens that contain bleomycin (BLM), methotrexate, cyclophosphamide, and many new agents. These patients are susceptible to pulmonary infections as well as to inflammation from pulmonary injury. […] The effects of solithromycin on the ability to prevent lung inflammation and fibrosis is described in a bleomycin induced-lung inflammation and fibrosis model. Group 1 (BLM-Vehicle): Ten BLM-induced pulmonary fibrosis model mice are orally administered vehicle (Carboxymethyl cellulose) at a volume of 10 mL/kg once daily from day −2 (two days before BLM administration) to day 6. […]
Quantitative RT-PCR. Total RNA was extracted from lung samples using RNAiso (Takara Bio, Japan). One μg of RNA was reverse-transcribed using a reaction mixture containing 4.4 mM MgCl2 (Roche, Switzerland), 40 U RNase inhibitor (Toyobo, Japan), 0.5 mM dNTP (Promega, USA), 6.28 μM random hexamer (Promega), 5× first strand buffer (Promega), 10 mM dithiothreitol (Invitrogen) and 200 U MMLV-RT (Invitrogen) in a final volume of 20 μL. The reaction was carried out for 1 hour at 37° C., followed by 5 minutes at 99° C. Real-time PCR was performed using real-time PCR DICE and SYBR premix Taq (Takara Bio). To calculate the relative mRNA expression level, the expression of each gene was normalized to that of reference gene GAPDH.
Analyses of BALF (bronchoalveolar lavage fluid). The cells in BALF are counted with a hemocytometer, and cell differentials are determined in cytospin preparations stained with Diff-Quik (Sysmex, Japan) MMP-9 in the supernatants from BALF are quantified by an enzyme-linked immunosorbent assay (ELISA; Cat# MMPT90, R&D Systems, USA). Histopathological assays for lung sections are performed according to standard methods. […]

[2] = 5 mg/kg q.d. oral, listed as Solithromycin, 5 mg/kg
[3] = 10 mg/kg b.i.d. oral, listed as Solithromycin, 10 mg/kg
[4] = 25 mg/kg b.i.d. oral, listed as Solithromycin, 25 mg/kg

## CC[C@H]1OC(=O)[C@@](C)(F)C(=O)[C@H](C)[C@@H](O[C@@H]2O[C@H](C)C[C@H](N(C)C)[C@H]2O)[C@](C)(OC)C[C@@H](C)C(=O)[C@H](C)[C@H]2N(CCCCn3cc(-c4cccc(N)c4)nn3)C(=O)O[C@]12C [solithromycin]
STAM mice; 5 mg/kg q.d. oral, 5 mg/kg
  Liver Weight: no statistically significant difference
  Liver-to-body Weight Ratio: no statistically significant differences
STAM mice; [2]
  Liver Weight: 1335 ± 185 mg
  Liver-to-body Weight Ratio: 7.0 ± 0.8%
STAM mice; 10 mg/kg b.i.d. oral, 10 mg/kg
  Liver Weight: significant reductions
  Liver-to-body Weight Ratio: no statistically significant differences
STAM mice; [3]
  Liver Weight: 1187 ± 134 mg
  Liver-to-body Weight Ratio: 6.7 ± 0.8%
STAM mice; 25 mg/kg b.i.d. oral, 25 mg/kg
  Liver Weight: significant reductions
  Liver-to-body Weight Ratio: significant decrease
STAM mice; [4]
  Liver Weight: 1087 ± 97 mg
  Liver-to-body Weight Ratio: 5.9 ± 0.7 %
STAM mice; 50 mg/kg q.d. oral
  Liver Weight: 1242 ± 141 mg
  Liver-to-body Weight Ratio: 6.0 ± 0.7 %
STAM mice; Group 4 (10 mg/kg b.i.d.)
  Mean body weight on the day of sacrifice compared to vehicle group: significant decrease
STAM mice; Groups 3, 5, 6
  Mean body weight on the day of sacrifice compared to vehicle group: no significant differences
STAM mice; as a function of increasing dose
  Macroscopic liver appearance (coloration): substantially less yellow in color
[1]
  Relative MCP-1 mRNA expression: 0.38 ± 0.32
  Relative MMP-9 mRNA expression: 0.42 ± 0.45
[1]; listed as SOLI
  Relative TNF-α mRNA expression: 2.45 ± 2.10
[1]; listed as Solithromycin
  Relative TNF-α mRNA expression: up-regulated

— US20170165286A1, “COMPOSITIONS AND METHODS FOR TREATING DIABETES AND LIVER DISEASES” (Cempra Pharmaceuticals, Inc., priority 2014, published 2017)
